Where two headings read alike, the source gives them in different places.
Assays:
CDK2/CycE = CDK2/CycE (Homo sapiens (Human), UniProt P24941); test: CDK2/CycE kinase assay (Method 2); type: biochemical; conditions: 10 μM ATP
[1] = target: human carbonic anhydrase-2 (Homo sapiens (Human), UniProt P00918); test: Carbonic anhydrase assay, carbonic anhydrase-2 (Method 4); type: biochemical; conditions: read-out: Inhibition of Carbonic anhydrase-2 IC50
Procedure: (§1) 4. Carbonic Anhydrase Assay
The principle of the assay is based on the hydrolysis of 4-nitrophenyl acetate by carbonic anhydrases (Pocker & Stone, Biochemistry, 1967, 6, 668), with subsequent photometric determination of the dye product 4-nitrophenolate at 400 nm by means of a 96-channel spectral photometer.
(§2) 2 μL of the test compounds, dissolved in DMSO (100-fold final concentration), in a concentration range of 0.03-10 μmol/L (final), was pipetted as quadruplicates into the wells of a 96-hole microtiter plate. Wells that contained the solvent without test compounds were used as reference values (1. Wells without carbonic anhydrase for correction of the non-enzymatic hydrolysis of the substrate, and 2. Wells with carbonic anhydrase for determining the activity of the non-inhibited enzyme).
(§3) 188 μL of assay buffer (10 mmol/L of Tris/HCl, pH 7.4, 80 mmol/L of NaCl), with or without 3 units/well of carbonic anhydrase-1 [=human carbonic anhydrase-1 (Sigma, #C4396)] in order to determine carbonic anhydrase-1 inhibition or 3 units/well of carbonic anhydrase-2 [=human carbonic anhydrase-2 (Sigma, #C6165)] for measuring carbonic anhydrase-2 inhibition, was pipetted into the wells of the microtiter plate.

[2] = target: human carbonic anhydrase-1 (Homo sapiens (Human), UniProt P00915); test: Carbonic anhydrase assay, carbonic anhydrase-1 (Method 4); type: biochemical; conditions: read-out: Inhibition of Carbonic anhydrase-1 IC50
Procedure: as §1, §2, §3

[3] = test system: HeLa-MaTu-ADR, multidrug-resistant human cervical carcinoma cells; test: Proliferation assay, HeLa-MaTu-ADR (Method 3); type: cell-based; conditions: 4 days, crystal violet, read-out: Inhibition of HeLa-MaTu-ADR cell proliferation IC50
Procedure: (§4) After 24 hours, the cells of one plate (zero-point plate) were stained with crystal violet (see below), while the medium of the other plates was replaced by fresh culture medium (200 μl), to which the test substances were added in various concentrations (0 μM, as well as in the range of 0.001-10 μM; the final concentration of the solvent dimethyl sulfoxide was 0.5%). The cells were incubated for 4 days in the presence of test substances. Cell proliferation was determined by staining the cells with crystal violet: the cells were fixed by adding 20 μl/measuring point of an 11% glutaric aldehyde solution for 15 minutes at room temperature. After three washing cycles of the fixed cells with water, the plates were dried at room temperature. The cells were stained by adding 100 μl/measuring point of a 0.1% crystal violet solution (pH 3.0). After three washing cycles of the stained cells with water, the plates were dried at room temperature. The dye was dissolved by adding 100 μl/measuring point of a 10% acetic acid solution. The extinction was determined by photometry at a wavelength of 595 nm. The change of cell number, in percent, was calculated by normalization of the measured values to the extinction values of the zero-point plate (=0%) and the extinction of the untreated (0 μm) cells (=100%).

[4] = test system: HeLa, human cervical tumour cells; test: Proliferation assay, HeLa (Method 3); type: cell-based; conditions: 4 days, crystal violet, read-out: Inhibition of HeLa cell proliferation IC50
Procedure, shortened: (§5)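 Crystal violet absorbance (595 nm) after 4-day compound exposure; % change in cell number scaled between a plate stained at compound addition (0%) and untreated wells (100%). Dose range 0.001–10 μM, DMSO 0.5% final, added 24 h post-seeding.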

[5] = test system: NCI-H460, human non-small cell lung carcinoma cells; test: Proliferation assay, NCI-H460 (Method 3); type: cell-based; conditions: NCI-H460, 4 days, crystal violet, read-out: Inhibition of H460 cell proliferation IC50
Procedure: as §4

[6] = test system: B16F10, mouse melanoma cells; test: Proliferation assay, B16F10 (Method 3); type: cell-based; conditions: B16F10, 4 days, crystal violet, read-out: Inhibition of B16F10 cell proliferation IC50
Procedure: as §4

[7] = test system: Caco-2, human colorectal carcinoma cells; test: Proliferation assay, Caco-2 (Method 3); type: cell-based; conditions: Caco-2, 4 days, crystal violet, read-out: Inhibition of Caco-2 cell proliferation IC50
Procedure: as §4

[8] = test system: DU 145, hormone-independent human prostate carcinoma cells; test: Proliferation assay, DU 145 (Method 3); type: cell-based; conditions: DU145, 4 days, crystal violet, read-out: Inhibition of DU145 cell proliferation IC50
Procedure: as §4

CDK9/CycT1 [9] = target: T1, CDK9/CycT1 (Homo sapiens (Human), UniProt P50750); test: CDK9/CycT1 kinase assay (Method 1a); type: biochemical; conditions: 10 μM ATP
[10] = test system: A2780, human ovarian carcinoma cells; test: Proliferation assay, A2780 (Method 3); type: cell-based; conditions: A2780, 4 days, crystal violet; read-out: Inhibition of A2780 cell proliferation IC50
Procedure, shortened: as §5

[11] = test system: MOLM-13 human acute myeloid leukemia cells; test: Proliferation assay, MOLM-13 (Cell Titre-Glo, Method 3); type: cell-based; conditions: MOLM-13, 72-hour exposure, read-out: Inhibition of MOLM-13 cell proliferation IC50
Procedure: Non-adherent MOLM-13 human acute myeloid leukemia cells (DSMZ ACC 554) were seeded at a density of 5,000 cells/well in a 96-well multititer plate in 100 μL of growth medium supplemented 10% fetal calf serum. After 24 hours, cell viability of one plate (zero-point plate) was determined with the Cell Titre-Glo Luminescent Cell Viability Assay (Promega), while 50 μL of test compound containing medium was added to the wells of the other plates (final concentrations in the range of 0.001-10 μM and DMSO controls; the final concentration of the solvent dimethyl sulfoxide was 0.5%). Cell viability was assessed after 72-hour exposure with the Cell Titre-Glo Luminescent Cell Viability Assay (Promega).

[12] = In vitro metabolic stability in rat hepatocytes (Method 5); type: in vitro ADME, Han Wistar rat; conditions: 1 μM test compound
Procedure: 5. Investigation of In Vitro Metabolic Stability in Rat Hepatocytes
Hepatocytes from Han Wistar rats were isolated via a 2-step perfusion method. After perfusion, the liver was carefully removed from the rat: the liver capsule was opened and the hepatocytes were gently shaken out into a Petri dish with ice-cold Williams medium E (purchased from Sigma Aldrich Life Science, St Louis, Mo.). The resulting cell suspension was filtered through sterile gaze in 50 ml falcon tubes and centrifuged at 50×g for 3 min at room temperature. The cell pellet was resuspended in 30 ml WME and centrifuged through a Percoll® gradient for 2 times at 100×g. The hepatocytes were washed again with Williams' medium E (WMA) and resuspended in medium containing 5% Fetal calf serum (FCS, purchased from Invitrogen, Auckland, NZ). Cell viability was determined by trypan blue exclusion.
For the metabolic stability assay liver cells were distributed in WME containing 5% FCS to glass vials at a density of 1.0×10^6 vital cells/ml. The test compound was added to a final concentration of 1 μM. During incubation, the hepatocyte suspensions were continuously shaken and aliquots were taken at 2, 8, 16, 30, 45 and 90 min, to which equal volumes of cold acetonitrile were immediately added. Samples were frozen at −20° C. over night, after subsequently centrifuged for 15 minutes at 3000 rpm and the supernatant was analyzed with an Agilent 1200 HPLC-system with LCMS/MS detection.
The half-life of a test compound was determined from the concentration-time plot. From the half-life the intrinsic clearances were calculated. Together with the additional parameters liver blood flow, amount of liver cells in vivo and in vitro.

CDK9/CycT1 [13] = target: T1, CDK9/CycT1; test: CDK9/CycT1 high ATP kinase assay (Method 1b); type: biochemical; conditions: 2 mM ATP
Procedure, shortened: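 Full-length His-tagged human CDK9/CycT1 (insect cells, ~0.5 μg/ml) pre-incubated 15 min at 22 °C with compound in Tris pH 8.0/MgCl2/DTT buffer; biotinylated peptide substrate, high ATP. After detection reagents, 1 h at 22 °C; TR-FRET 665/620 nm emission ratio (350 nm excitation) measured phosphorylation.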

T1 sequence (P50750 whole entry): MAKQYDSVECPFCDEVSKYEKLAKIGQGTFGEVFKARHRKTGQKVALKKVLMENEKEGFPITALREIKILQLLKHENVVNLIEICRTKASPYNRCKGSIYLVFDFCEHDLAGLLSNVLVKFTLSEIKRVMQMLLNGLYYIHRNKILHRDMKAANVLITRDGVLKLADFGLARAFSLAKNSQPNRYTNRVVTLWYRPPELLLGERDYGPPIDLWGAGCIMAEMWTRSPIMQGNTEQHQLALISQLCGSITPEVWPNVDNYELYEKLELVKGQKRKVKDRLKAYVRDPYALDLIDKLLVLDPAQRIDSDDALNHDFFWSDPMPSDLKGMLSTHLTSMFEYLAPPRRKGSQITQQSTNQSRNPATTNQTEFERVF
T1 sequence (O60563 whole entry partner): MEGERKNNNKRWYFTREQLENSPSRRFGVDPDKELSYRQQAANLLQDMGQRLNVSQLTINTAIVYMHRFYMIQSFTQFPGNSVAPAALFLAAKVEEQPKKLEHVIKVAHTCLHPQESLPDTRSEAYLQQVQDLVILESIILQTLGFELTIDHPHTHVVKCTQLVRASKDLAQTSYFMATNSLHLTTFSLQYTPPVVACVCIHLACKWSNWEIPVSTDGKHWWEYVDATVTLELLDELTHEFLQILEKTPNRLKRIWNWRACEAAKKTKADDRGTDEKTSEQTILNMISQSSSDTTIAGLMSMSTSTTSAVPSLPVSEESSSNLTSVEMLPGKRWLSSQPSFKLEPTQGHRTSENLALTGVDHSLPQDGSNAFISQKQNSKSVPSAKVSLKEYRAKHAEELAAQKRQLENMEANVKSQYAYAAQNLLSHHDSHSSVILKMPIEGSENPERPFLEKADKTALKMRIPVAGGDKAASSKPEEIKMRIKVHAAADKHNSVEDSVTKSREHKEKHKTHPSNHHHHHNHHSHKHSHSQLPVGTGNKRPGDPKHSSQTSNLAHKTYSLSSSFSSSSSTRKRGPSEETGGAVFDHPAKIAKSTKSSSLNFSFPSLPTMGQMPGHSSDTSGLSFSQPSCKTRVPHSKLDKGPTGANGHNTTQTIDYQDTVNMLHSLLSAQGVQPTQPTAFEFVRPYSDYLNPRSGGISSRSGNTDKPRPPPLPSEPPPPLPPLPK
Chain of human carbonic anhydrase-1 (P00915 whole entry): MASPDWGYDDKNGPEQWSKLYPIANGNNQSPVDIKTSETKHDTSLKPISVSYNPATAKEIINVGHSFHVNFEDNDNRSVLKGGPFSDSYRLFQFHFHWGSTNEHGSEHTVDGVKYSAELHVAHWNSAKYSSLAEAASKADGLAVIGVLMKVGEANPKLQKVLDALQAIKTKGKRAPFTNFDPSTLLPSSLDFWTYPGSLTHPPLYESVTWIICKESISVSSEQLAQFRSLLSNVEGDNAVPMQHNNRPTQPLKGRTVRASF

Row | SMILES | IC50 (CDK2/CycE) | IC50 [1] | IC50 [2] | IC50 ([3]; Homo sapiens, 96 h) | IC50 ([4]; Homo sapiens, 96 h) | IC50 ([5]; Homo sapiens, NCI-H460, 96 h) | IC50 ([6]; Mus musculus, B16-F10, 96 h) | IC50 ([7]; Homo sapiens, Caco-2, 96 h) | IC50 ([8]; Homo sapiens, DU-145, 96 h) | IC50 [3] | IC50 (CDK9/CycT1 [9]) | IC50 [4] | IC50 [5] | IC50 [6] | IC50 [10] | IC50 [11] | maximal calculated oral bioavailability (Fmax) based on stability data in rat Hepatocytes [12] | IC50 [7] | IC50 [8] | IC50 (CDK9/CycT1 [13])
1 | CS(=O)(Cc1cc(Br)cc(Nc2ncc(F)c(-c3ccc(F)cc3F)n2)c1)=NC#N (racemic) [Example 18, (rac)-[(3-Bromo-5-{[4-(2,4-difluorophenyl)-5-fluoropyrimidin-2-yl]amino}benzyl)(methyl)oxido-λ^6-sulfanylidene]cyanamide] | 0.47 µM | > 10 µM | > 10 µM |  |  |  |  |  |  |  |  |  |  |  |  |  |  |  |  | 
2 | COc1cc(CS(C)(=O)=NC#N)cc(Nc2ncc(F)c(-c3ccc(F)cc3F)n2)c1 (racemic) [Example 20, (rac)-[(3-{[4-(2,4-Difluorophenyl)-5-fluoropyrimidin-2-yl]amino}-5-methoxybenzyl)(methyl)oxido-λ^6-sulfanylidene]cyanamide] | 0.23 µM |  |  | 0.33 µM | 0.32 µM | 0.384 µM | 0.321 µM | 0.344 µM | 0.34 µM |  |  |  |  |  |  |  |  |  |  | 
3 | CS(=O)(Cc1cc(Nc2ncc(F)c(-c3ccc(F)cc3F)n2)cc(S(F)(F)(F)(F)F)c1)=NC(N)=O (single isomer, unassigned) [Example 34, 1-{[3-{[4-(2,4-Difluorophenyl)-5-fluoropyrimidin-2-yl]amino}-5-(pentafluoro-λ^6-sulfanyl)benzyl](methyl)oxido-λ^6-sulfanylidene}urea] |  |  |  |  |  |  |  |  |  | 0.134 µM | 0.004 µM | 0.172 µM | 0.317 µM | 0.323 µM | 0.099 µM | 0.039 µM | 90% | 0.202 µM | 0.142 µM | 0.011 µM
